From patent publication US20160136246A1, “Novel Uses of GLP-1 Receptor Agonists in Patients Treated with Insulin and/or Suffering from Type 1 Diabetes” (NOVO NORDISK A/S, priority 2013, published 2016)

System: adults with type 1 diabetes
Assay: Randomised, double-blind crossover trial of liraglutide adjunct to insulin, 4 weeks of treatment: glycaemic control and safety
Format: in vivo, human
Protocol: Subjects received target dose for a minimum of 2 weeks.
After 4 weeks of treatment, estimated treatment differences in insulin dose, HbA1c, pulse and body weight were assessed. Hypoglycaemia and hypoglycaemic episodes and overall safety parameters were assessed throughout the treatment period.
Hypoglycaemia and/or hypoglycaemic episodes were defined and assessed according to the ADA Hypoglycaemic Classification (FIG. 3).

[1] = 0.6 mg liraglutide, during the trial
[2] = 0.6 mg liraglutide, during treatment
[3] = 1.2 mg liraglutide, during the trial

With CCCCCCCCCCCCCCCC(=O)N[C@@H](CCC(=O)NCCCC[C@H](NC(=O)[C@H](C)NC(=O)[C@H](C)NC(=O)[C@H](CCC(N)=O)NC(=O)CNC(=O)[C@H](CCC(=O)O)NC(=O)[C@H](CC(C)C)NC(=O)[C@H](Cc1ccc(O)cc1)NC(=O)[C@H](CO)NC(=O)[C@H](CO)NC(=O)[C@@H](NC(=O)[C@H](CC(=O)O)NC(=O)[C@H](CO)NC(=O)[C@@H](NC(=O)[C@H](Cc1ccccc1)NC(=O)[C@@H](NC(=O)CNC(=O)[C@H](CCC(=O)O)NC(=O)[C@H](C)NC(=O)[C@@H](N)Cc1cnc[nH]1)[C@@H](C)O)[C@@H](C)O)C(C)C)C(=O)N[C@@H](CCC(=O)O)C(=O)N[C@@H](Cc1ccccc1)C(=O)N[C@H](C(=O)N[C@@H](C)C(=O)N[C@@H](Cc1c[nH]c2ccccc12)C(=O)N[C@@H](CC(C)C)C(=O)N[C@H](C(=O)N[C@@H](CCCNC(=N)N)C(=O)NCC(=O)N[C@@H](CCCNC(=N)N)C(=O)NCC(=O)O)C(C)C)[C@@H](C)CC)C(=O)O [liraglutide] the “AEs leading to withdrawal, E = number of events” value [1] was 1, the “AEs leading to withdrawal, N = number of subjects” value [1] was 1 and the “AEs leading to withdrawal, percentage of subjects” value [1] was 6.7%. For the same molecule, the “Abdominal distention, E = number of events” value [1] was 1, the “Abdominal distention, N = number of subjects” value [1] was 1 and the “Abdominal distention, percentage of subjects” value [1] was 6.7%. The “Abdominal pain (N % E, given as a single 0)” value [1] was 0/0, the “Adverse events, total number of events, E = number of events” value [1] was 27 and the “Adverse events, total number of events, N = number of subjects” value [1] was 12. For the same molecule, the “Adverse events, total number of events, percentage of subjects” value [1] was 80.0%, the “Diarrhea (N % E, given as a single 0)” value [1] was 0/ and the “Dyspepsia (N % E, given as a single 0)” value [1] was 0/0. The “Flatulence, E = number of events” value [1] was 1, the “Flatulence, N = number of subjects” value [1] was 1 and the “Flatulence, percentage of subjects” value [1] was 6.7%. For the same molecule, the “Nausea, E = number of events” value [1] was 8, the “Nausea, N = number of subjects” value [1] was 8 and the “Nausea, percentage of subjects” value [1] was 53.3%. The “Regurgitation, E = number of events” value [1] was 1, the “Regurgitation, N = number of subjects” value [1] was 1 and the “Regurgitation, percentage of subjects” value [1] was 6.7%. For the same molecule, the “Serious AEs (N % E, given as a single 0)” value [1] was 0/0, the “Total number of GI AEs, E = number of events” value [1] was 12 and the “Total number of GI AEs, N = number of subjects” value [1] was 10. For the same molecule, the “Total number of GI AEs, percentage of subjects” value [1] was 66.7%, the “Upper abdominal pain (N % E, given as a single 0)” value [1] was 0/0 and the “Vomiting, E = number of events” value [1] was 1. The “Vomiting, N = number of subjects” value [1] was 1, the “Vomiting, percentage of subjects” value [1] was 6.7% and the “Asymptomatic hypoglycaemic episodes, N = number of subjects” value [2] was 12. The “Asymptomatic hypoglycaemic episodes, percentage of subjects” value [2] was 80.0%, the “Documented symptomatic hypoglycaemic episodes, N = number of subjects” value [2] was 13 and the “Documented symptomatic hypoglycaemic episodes, percentage of subjects” value [2] was 86.7%. For the same molecule, the “Probable symptomatic hypoglycaemic episodes, E = number of events” value [2] was 3, the “Probable symptomatic hypoglycaemic episodes, N = number of subjects” value [2] was 1 and the “Probable symptomatic hypoglycaemic episodes, percentage of subjects” value [2] was 6.7%. The “Severe hypoglycaemic episodes, E = number of events” value [2] was 0 (0) 0/, the “Severe hypoglycaemic episodes, N = number of subjects” value [2] was 0 (0) 0/ and the “Severe hypoglycaemic episodes, percentage of subjects” value [2] was 0 (0) 0/ %. For the same molecule, the “Total ADA classified hypoglycaemic episodes, E = number of events” value [2] was 289, the “Total ADA classified hypoglycaemic episodes, N = number of subjects” value [2] was 14 and the “Total ADA classified hypoglycaemic episodes, percentage of subjects” value [2] was 93.3%. For the same molecule, the “AEs leading to withdrawal, E = number of events” value [3] was 1, the “AEs leading to withdrawal, N = number of subjects” value [3] was 1 and the “AEs leading to withdrawal, percentage of subjects” value [3] was 7.1%. The “Abdominal distention, E = number of events” value [3] was 3, the “Abdominal distention, N = number of subjects” value [3] was 3 and the “Abdominal distention, percentage of subjects” value [3] was 21.4%. For the same molecule, the “Abdominal pain, E = number of events” value [3] was 1, the “Abdominal pain, N = number of subjects” value [3] was 1 and the “Abdominal pain, percentage of subjects” value [3] was 7.1%. For the same molecule, the “Adverse events, total number of events, E = number of events” value [3] was 45, the “Adverse events, total number of events, N = number of subjects” value [3] was 14 and the “Adverse events, total number of events, percentage of subjects” value [3] was 100%. For the same molecule, the “Diarrhea, E = number of events” value [3] was 1, the “Diarrhea, N = number of subjects” value [3] was 1 and the “Diarrhea, percentage of subjects” value [3] was 7.1%. The “Dyspepsia, E = number of events” value [3] was 1, the “Dyspepsia, N = number of subjects” value [3] was 1 and the “Dyspepsia, percentage of subjects” value [3] was 7.1%. The “Flatulence, E = number of events” value [3] was 1, the “Flatulence, N = number of subjects” value [3] was 1 and the “Flatulence, percentage of subjects” value [3] was 7.1%. The “Nausea, E = number of events” value [3] was 14, the “Nausea, N = number of subjects” value [3] was 11 and the “Nausea, percentage of subjects” value [3] was 78.6%. The “Regurgitation, E = number of events” value [3] was 2, the “Regurgitation, N = number of subjects” value [3] was 2 and the “Regurgitation, percentage of subjects” value [3] was 14.3%. For the same molecule, the “Serious AEs (N % E, given as a single 0)” value [3] was 0/0, the “Total number of GI AEs, E = number of events” value [3] was 24 and the “Total number of GI AEs, N = number of subjects” value [3] was 12. The “Total number of GI AEs, percentage of subjects” value [3] was 85.7%.
